According to patent publication US8168665B2, “Substituted 2-phenyl-benzimidazoles and their use as pharmaceuticals” (Sanofi-Aventis, priority 2006, dated 2012):

system: eNOS promoter; assay: Activation of eNOS transcription (eNOS promoter-luciferase reporter, human endothelial cell line); assay type: cell-based; settings: human endothelial cell line stably transfected with eNOS promoter-luciferase construct, 18 h incubation, determined graphically; read-out: EC50 values of transcription induction ratios (TIR)
Experimental: A) Activation of eNOS Transcription
Activation of eNOS transcription was measured as described in detail by Li et al., “Activation of protein kinase C alpha and/or epsilon enhances transcription of the human endothelial nitric oxide synthase gene”, Mol. Pharmacol. 53 (1998) 630. Briefly, a 3.5 kB long fragment 5′ of the starting codon of the eNOS gene was cloned, sequenced and cloned in firefly luciferase expression plasmids to monitor activation of the eNOS promoter by reporter gene activity. A human endothelial cell line stable transfected and expressing this promoter-reporter construct was used for compound testing. Cells were incubated for 18 h with the compounds.
All compounds were dissolved in sterile dimethyl sulfoxide (DMSO). A final concentration of 0.5% DMSO in complete medium was allowed. Induction of reporter gene expression in these cells was measured using a standard luciferase assay system (Promega, Cat. No. E150) according to the manufacturer's instructions. Luciferase induction in cells incubated with compounds were compared to those incubated with solvent alone. The ratio of both activities (transcription induction ratio, TIR) was plotted as a function of compound concentration. Typically, TIR values started at low concentrations at a ratio of 1, indicating no compound effect, and extended up to a maximum TIR value TIR(max) which indicates the increase of the eNOS transcription. EC50 values of transcription induction ratios as a function of compound concentration were determined graphically.

EC50	Compound
< 0.5 µM	CC(C)OC(=O)O/N=C(\N)c1ccc2[nH]c(-c3ccc(F)cc3)nc2c1 [Example 7, 2-(4-Fluoro-phenyl)-N-isopropyloxycarbonyl-oxy-1H-benzoimidazole-5-carboxamidine]
< 0.5 µM	CCOC(=O)O/N=C(\N)c1ccc2[nH]c(-c3ccc(F)cc3)nc2c1 [Example 5, 2-(4-Fluoro-phenyl)-N-ethoxycarbonyl-oxy-1H-benzoimidazole-5-carboxamidine]
< 0.5 µM	Cc1ccc(-c2nc3cc(/C(N)=N/O)ccc3[nH]2)cc1 [Example 4, N-Hydroxy-2-p-tolyl-1H-benzoimidazole-5-carboxamidine]
< 0.5 µM	COC(=O)O/N=C(\N)c1ccc2[nH]c(-c3ccc(F)cc3)nc2c1 [Example 6, 2-(4-Fluoro-phenyl)-N-methoxycarbonyl-oxy-1H-benzoimidazole-5-carboxamidine]
